The values below come from ChEMBL document CHEMBL1138458, “Fructose-1,6-bisphosphatase inhibitors. 1. Purine phosphonic acids as novel AMP mimics” (J Med Chem, 2009).

By EC50 is commonly meant the concentration giving half of the maximal effect. One may read the IC50 as the concentration at which inhibition is half-maximal.

Data set [1] deals with Liver. Description: Drug concentration in overnight-fasted Sprague-Dawley rat liver assessed as {5-[6-Amino-9-(2,2-dimethyl-propyl)-9H-purin-8-yl]-furan-2-yl}- phosphonic acid level at 50 mg/kg, po after 1 hr. Type of data set: ADME, organism-based. Also noted: dose 50 mg/kg, route oral. Conditions: in vivo.
The subject of data set [2] is Liver. Description: Drug concentration in overnight-fasted Sprague-Dawley rat liver assessed as {5-[6-Amino-9-(2,2-dimethyl-propyl)-9H-purin-8-yl]-furan-2-yl}- phosphonic acid level at 50 mg/kg, po after 2 hrs. Format: ADME, organism-based. Also noted: dose 50 mg/kg, route oral. Conditions: in vivo.
In data set [3] the test system is Hepatocyte. Kind of data set: Inhibition of glucose production in rat primary hepatocytes treated for 15 to 30 mins prior to gluconeogenic substrate dihydroxyacetone addition. Type of data set: functional, cell-based.
For data set [4], the system named is Rattus norvegicus. Description: Oral bioavailability in fasted Sprague-Dawley rat assessed as urinary excretion of phosphonic acid up to 300 mg/kg. Format: ADME, organism-based, Urine. Conditions: in vivo.
In data set [5] the target is T1, Glycogen phosphorylase, muscle form (Oryctolagus cuniculus, UniProt P00489).
T1 sequence (P00489 whole entry): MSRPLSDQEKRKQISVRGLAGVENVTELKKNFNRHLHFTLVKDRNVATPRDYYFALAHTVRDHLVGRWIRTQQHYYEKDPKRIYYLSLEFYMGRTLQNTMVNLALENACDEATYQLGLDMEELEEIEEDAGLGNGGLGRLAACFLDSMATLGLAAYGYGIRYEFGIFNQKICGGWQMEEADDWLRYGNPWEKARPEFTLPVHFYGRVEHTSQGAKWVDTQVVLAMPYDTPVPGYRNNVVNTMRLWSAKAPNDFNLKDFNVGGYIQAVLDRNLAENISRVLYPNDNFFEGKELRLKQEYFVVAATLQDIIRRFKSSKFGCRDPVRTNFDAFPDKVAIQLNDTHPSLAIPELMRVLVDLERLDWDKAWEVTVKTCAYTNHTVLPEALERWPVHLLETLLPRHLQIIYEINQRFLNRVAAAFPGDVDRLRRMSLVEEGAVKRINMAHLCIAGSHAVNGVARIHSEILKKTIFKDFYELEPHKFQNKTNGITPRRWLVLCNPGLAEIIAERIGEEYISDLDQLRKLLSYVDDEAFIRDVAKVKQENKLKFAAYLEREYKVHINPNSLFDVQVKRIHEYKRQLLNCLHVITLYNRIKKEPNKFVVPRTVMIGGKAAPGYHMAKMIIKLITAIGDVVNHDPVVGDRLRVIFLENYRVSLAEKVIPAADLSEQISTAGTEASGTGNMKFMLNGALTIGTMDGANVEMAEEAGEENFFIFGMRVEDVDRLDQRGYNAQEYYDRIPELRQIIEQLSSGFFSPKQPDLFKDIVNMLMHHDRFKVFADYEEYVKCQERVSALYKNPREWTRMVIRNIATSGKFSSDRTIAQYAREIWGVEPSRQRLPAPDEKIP
Kind of data set: Inhibition of rabbit muscle glycogen phosphorylase.

The subject of data set [6] is Liver. Kind of data set: Drug concentration in overnight-fasted Sprague-Dawley rat liver at 20 mg/kg, ip after 1 hr. Type of data set: ADME, organism-based. Also noted: dose 20 mg/kg, route intraperitoneal. Particulars: in vivo.
For data set [7], the system named is Rattus norvegicus. Kind of data set: Increase in fructose-1,6-bisphosphate level in overnight-fasted Sprague-Dawley rat liver at 20 mg/kg, ip relative to control. Format: organism-based. Set-up: dose 20 mg/kg, route intraperitoneal. Conditions: in vivo.
Data set [8] concerns the target Adenosine kinase (Homo sapiens, UniProt P55263). Description: Inhibition of human recombinant adenosine kinase expressed in Escherichia coli.
Data set [9] is described as follows: Plasma concentration in overnight-fasted Sprague-Dawley rat at 20 mg/kg, ip after 1 hr. Type of data set: ADME, organism-based. Set-up: dose 20 mg/kg, route intraperitoneal.
Data set [10] concerns Rattus norvegicus. Description: Reduction in blood glucose level in overnight-fasted Sprague-Dawley rat at 20 mg/kg, ip within 1 hr. Format: organism-based. Also noted: dose 20 mg/kg, route intraperitoneal; scale not given: the % may be the effect or the level left. Particulars: in vivo.
Data set [11] can be described thus: Inhibition of New Zealand white rabbit liver phosphofructokinase. Set-up: species or system Oryctolagus cuniculus.
Data set [12] is described as follows: Inhibition of pig heart AMP deaminase. Also noted: species or system Sus scrofa.

Sequence of Adenosine kinase (P55263 whole entry): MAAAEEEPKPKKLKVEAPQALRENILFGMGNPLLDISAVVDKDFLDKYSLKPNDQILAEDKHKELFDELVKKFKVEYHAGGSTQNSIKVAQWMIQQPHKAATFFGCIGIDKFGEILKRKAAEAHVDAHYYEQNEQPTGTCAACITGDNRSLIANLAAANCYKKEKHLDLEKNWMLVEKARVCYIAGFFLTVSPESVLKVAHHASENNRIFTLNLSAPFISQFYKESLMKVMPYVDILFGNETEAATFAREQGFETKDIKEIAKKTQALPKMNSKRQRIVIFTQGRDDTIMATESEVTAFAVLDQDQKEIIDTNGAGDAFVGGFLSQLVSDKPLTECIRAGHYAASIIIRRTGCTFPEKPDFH

With `CC(C)C(=O)OCOP(=O)(OCOC(=O)C(C)C)c1ccc(-c2nc3c(N)ncnc3n2CC(C)(C)C)o1`, the Drug uptake worked out at 3.5 nmol/g in [1] and 2 nmol/g in data set [2]. For the same compound, the EC50 in [3] was found to be 3 µM. Further, in data set [4], the F is recorded as 8.1%.
Turning to `CC(C)(C)Cn1c(-c2ccc(P(=O)(O)O)o2)nc2c(N)ncnc21`, the EC50 in [5] is more than 100 µM; in data set [3] it was 90 µM; in data set [11], more than 100 µM. The compound also showed a Drug uptake in [6] of 51.3 nmol/g. Besides, the results for the Activity in [7] and in data set [10] were 10 and 65%, respectively. Also, the F in data set [4] was 1.6%. For the same compound, the IC50 in [8] was more than 100 µM; in [12], 390 µM. Besides, the concentration at 1 h in data set [9] is 38.5 µM.
